Test results taken from US20240209092A1, “COMBINATION THERAPIES FOR TREATING CANCER” (ADAGENE INC., priority 2021, published 2024).

Tests used:
[1] = system: Renca murine kidney cancer cells; test: Renca cancer model, TY21580 with Anlotinib; format: in vivo, mice
Method: Mice were inoculated subcutaneously with Renca murine kidney cancer cells. […] Anlotinib at 3 mg/kg was p.o. dosed daily for 17 doses.

[2] = system: 4T1 cancer model; settings: Day 35; TY21580 2 mg/kg i.p. biweekly four doses, Docetaxel 10 mg/kg i.v. weekly 3 doses
Method: Dosing started when average tumor volume reached about 90 mm^3 (n=8 per group). When the mean tumor volume reached 90 mm^3, the tumor bearing mice were randomized into different treatment groups of eight mice each. […] Docetaxel at 10 mg/kg was i.v. dosed weekly for 3 doses.

[3] = system: CT26 cancer model; test: CT26 cancer model, TY21580 with Fruquintinib; format: in vivo, mice
Method: Dosing started when average tumor volume reached about 120 mm^3 (n=8 per group). […] Fruquintinib at 5 mg/kg was p.o. dosed daily for 3 weeks.

[4] = system: EMT6 murine breast cancer cells; test: EMT6 cancer model, TY21580 with Olaparib; format: in vivo, mice; settings: Olaparib 50 mg/kg p.o. daily for 21 doses
Method: Mice were inoculated subcutaneously with EMT6 murine breast cancer cells. […] Intraperitoneal administration of TY21580 at 0.1 mg/kg was initiated on a biweekly schedule. Olaparib at 50 mg/kg was p.o. dosed daily for 21 doses.

[5] = system: EMT6 murine breast cancer cells; test: EMT6 cancer model, ADG106 with TY21580; format: in vivo, mice; settings: ADG106 0.5 mg/kg, TY21580 0.1 mg/kg, i.p. biweekly
Method: (§1) FIGS. 19A-19B provide the results of ADG106 administered in combination with TY21580 in the EMT6 cancer model to assess in vivo antitumor efficacy of ADG106 and TY21580 combination treatment. Mice were inoculated subcutaneously with EMT6 murine breast cancer cells. […] Intraperitoneal administration of 0.5 mg/kg ADG106 or 0.1 mg/kg TY21580, or combination of these two agents, was initiated on a biweekly schedule.

[6] = system: 4T1 breast cancer cells; test: 4T1 breast cancer model, ADG106 with TY21580; format: in vivo, BALB/c mice; settings: TY21580 2 mg/kg, ADG106 5 mg/kg, i.p. twice a week for 2 weeks
[7] = system: MC38 murine colon tumor cells; test: MC38 colon cancer model, ADG106 with TY21580 (FIGS. 13A-13B); format: in vivo, mice; settings: Day 33; ADG106 10 mg/kg alone
Method: Mice were inoculated subcutaneously with MC38 murine colon tumor cells. […] These groups received either 10 mg/kg isotype control, 10 mg/kg ADG106, 0.2 or 2 mg/kg TY21580, or a combination of ADG106 and TY21580 at the same doses by IP injection. All antibodies were dosed twice a week for 4 weeks. […] No adverse effects were observed on body weights with these treatments.

[8] = system: 4T1 murine breast cancer cells; test: 4T1 cancer model, TY22404 with ADG106; format: in vivo, mice; settings: Day 33; 5 mg/kg TY22404 and/or ADG106 i.p. biweekly, four doses
Method: Mice were inoculated subcutaneously with 4T1 murine breast cancer cells. […] Intraperitoneal administration of Vehicle, 5 mg/kg TY22404 or ADG106, or combination of these two agents, was initiated on a biweekly schedule for four doses.

[9] = system: MC38 murine colon tumor cells; test: MC38 cancer model, TY22404 with ADG106; format: in vivo, mice; settings: Day 27 post tumor cell inoculation; 5 mg/kg each, i.p. biweekly four doses
Method: FIG. 25 provides the results of TY22404 administered in combination with ADG106 antibody in the MC38 cancer model to assess in vivo antitumor efficacy of the combination treatment. Mice were inoculated subcutaneously with MC38 murine colon tumor cells. […] Intraperitoneal administration of test antibodies was initiated on a biweekly schedule for four doses. Tumor growth inhibition (TGI) relative to the isotype control group was evaluated on Day 27 post tumor cell inoculation.

[10] = system: A20 murine B lymphoma cells; test: A20 cancer model, ADG106 with TY21580; format: in vivo, mice; settings: ADG106 5 mg/kg, TY21580 0.5 mg/kg, i.p. biweekly, 4 doses
Method: as §1, with “18A-18B” for “19A-19B”, “A20” for “EMT6”, “B lymphoma” for “breast cancer”, “5” for “0.5”, “0.5” for “0.1”, “schedule for 4 doses.” for “schedule.”

[11] = system: CT26 murine colon tumor cells; test: CT26 colon cancer model, ADG106 with TY21580 (FIGS. 12A-12B); format: in vivo, mice; settings: Day 19; ADG106 0.2 mg/kg and/or TY21580 0.2 mg/kg, IP twice a week
Method: FIGS. 12A-12B provide the results of ADG106 administered in combination with TY21580 in the mouse CT26 colon cancer model to assess in vivo antitumor efficacy of ADG106 and TY21580 combination treatment. Mice were inoculated subcutaneously with CT26 murine colon tumor cells. […] These groups received either 1 mg/kg isotype control, 0.2 mg/kg ADG106, 0.2 or 1 mg/kg TY21580, or a combination of ADG106 and TY21580 at the same doses by IP injection. All antibodies were dosed twice a week.

[12] = system: B16F10 murine melanoma tumor cells; test: B16F10 melanoma model, ADG106 with TY21580 (FIG. 17); format: in vivo, mice; settings: 5 mg/kg each, IP twice a week from tumor inoculation
Method: All antibodies were dosed twice a week.

For COc1cc2c(Oc3ccc4[nH]c(C)cc4c3F)ccnc2cc1OCC1(N)CC1 [Anlotinib], the “TGI vs vehicle control” value ([1]; Day 29, Anlotinib 3 mg/kg p.o. daily for 17 doses) was 93% and the “antitumor effect vs vehicle control, in words” value ([1]; TY21580 5 mg/kg i.p. biweekly four doses, Anlotinib 3 mg/kg p.o. daily) was “strong antitumor activity”.
With CC(=O)O[C@@]12CO[C@@H]1C[C@H](O)[C@@]1(C)C(=O)[C@H](O)C3=C(C)[C@@H](OC(=O)[C@H](O)[C@@H](NC(=O)OC(C)(C)C)c4ccccc4)C[C@@](O)([C@@H](OC(=O)c4ccccc4)[C@H]21)C3(C)C [Docetaxel, reference compound] the “TGI vs vehicle control” value [2] was 38.3%.
With CNC(=O)c1c(C)oc2cc(Oc3ncnc4cc(OC)c(OC)cc34)ccc12 [Fruquintinib, reference compound] the “antitumor activity vs isotype control, in words” value ([3]; TY21580 0.1 mg/kg i.p. biweekly four doses, Fruquintinib 5 mg/kg p.o. daily for 3 weeks) was “partial antitumor activity” and the “complete response (CR)” value ([3]; TY21580 0.1 mg/kg, Fruquintinib 5 mg/kg, n=8 per group) was “no complete response”.
For O=C(c1cc(Cc2n[nH]c(=O)c3ccccc23)ccc1F)N1CCN(C(=O)C2CC2)CC1 [Olaparib, reference compound], the “antitumor effect vs vehicle control, in words” value [4] was “no significant antitumor effect”.
In the case of “ADG106: anti-CD137 antibody, heavy chain SEQ ID NO: 240, light chain SEQ ID NO: 241”, the “antitumor activity vs vehicle control, in words” value [5] is reported as “significant antitumor activity”, the “anti-tumor activity vs isotype control, in words” value [6] is reported as “showed anti-tumor activity” and the “tumor growth inhibition, in words” value [7] is reported as “did not inhibit tumor growth”. For the same compound, the “TGI vs vehicle control” value [8] was 10%, the “Tumor growth inhibition (TGI) relative to isotype control” value [9] was 21% and the “antitumor activity vs vehicle control, in words” value [10] was “partial antitumor activity”. For the same compound, the “TGI vs isotype control” value [11] was 47% and the “antitumor activity vs isotype control, in words” value [12] was “did not inhibit tumor growth”.
